Relative viability data for five cell lines are collected here from the supplement of paper PMC10307832.

What all share (assay): relative viability (nuclei count vs DMSO), 5 days (fraction); higher = more cells survive
Compound in the assay “Venetoclax + Trametinib”: CC1(C)CCC(CN2CCN(c3ccc(C(=O)NS(=O)(=O)c4ccc(NCC5CCOCC5)c([N+](=O)[O-])c4)c(Oc4cnc5[nH]ccc5c4)c3)CC2)=C(c2ccc(Cl)cc2)C1 [Venetoclax] + CC(=O)Nc1cccc(-n2c(=O)n(C3CC3)c(=O)c3c(Nc4ccc(I)cc4F)n(C)c(=O)c(C)c32)c1 [Trametinib] (partner 0.02 µM)
The method, boiled down:
(§1)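 Five library-drug doses in √10 steps were combined with a fixed anchor-drug dose, or a single drug was given alone, by pin tool to lung cancer cell lines in 1536-well plates the day after seeding. Nuclei were stained and counted after 5 days. Relative viability is the nuclei count in treated wells over that in vehicle wells, taken as the median of duplicate plates.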

Compound in the assay “Venetoclax + Palbociclib”: CC1(C)CCC(CN2CCN(c3ccc(C(=O)NS(=O)(=O)c4ccc(NCC5CCOCC5)c([N+](=O)[O-])c4)c(Oc4cnc5[nH]ccc5c4)c3)CC2)=C(c2ccc(Cl)cc2)C1 [Venetoclax] + CC(=O)c1c(C)c2cnc(Nc3ccc(N4CCNCC4)cn3)nc2n(C2CCCC2)c1=O [Palbociclib] (partner 0.5 µM)
The method, boiled down: as §1

Compound in the assay “Venetoclax + Navitoclax”: CC1(C)CCC(CN2CCN(c3ccc(C(=O)NS(=O)(=O)c4ccc(NCC5CCOCC5)c([N+](=O)[O-])c4)c(Oc4cnc5[nH]ccc5c4)c3)CC2)=C(c2ccc(Cl)cc2)C1 [Venetoclax] + CC1(C)CCC(c2ccc(Cl)cc2)=C(CN2CCN(c3ccc(C(=O)NS(=O)(=O)c4ccc(N[C@H](CCN5CCOCC5)CSc5ccccc5)c(S(=O)(=O)C(F)(F)F)c4)cc3)CC2)C1 [Navitoclax] (partner 0.5 µM)
The method, boiled down: as §1

Compound in the assay “Venetoclax + Linsitinib”: CC1(C)CCC(CN2CCN(c3ccc(C(=O)NS(=O)(=O)c4ccc(NCC5CCOCC5)c([N+](=O)[O-])c4)c(Oc4cnc5[nH]ccc5c4)c3)CC2)=C(c2ccc(Cl)cc2)C1 [Venetoclax] + C[C@]1(O)C[C@@H](c2nc(-c3ccc4ccc(-c5ccccc5)nc4c3)c3c(N)nccn32)C1 [Linsitinib] (partner 1 µM)
The method, boiled down: as §1

As to NCI-H647, the relative viability with Venetoclax + Trametinib (first compound 0.01 µM) was found to be 0.463; in the assay with Venetoclax + Trametinib (first compound 0.03162 µM), 0.428; with Venetoclax + Trametinib (first compound 0.1 µM), 0.423; with Venetoclax + Trametinib (first compound 0.3162 µM) it was 0.399; with Venetoclax + Trametinib (first compound 1 µM), 0.433; in the assay with Venetoclax + Palbociclib (first compound 0.01 µM), 0.504. The relative viability with Venetoclax + Palbociclib (first compound 0.03162 µM) was determined as 0.488; in the assay with Venetoclax + Palbociclib (first compound 0.1 µM), 0.34; with Venetoclax + Palbociclib (first compound 0.3162 µM), 0.365; in the assay with Venetoclax + Palbociclib (first compound 1 µM), 0.269; with Venetoclax + Navitoclax (first compound 0.01 µM), 1.16; with Venetoclax + Navitoclax (first compound 0.03162 µM) it was 1.26. Moreover, the relative viability with Venetoclax + Navitoclax (first compound 0.1 µM) was 1.22; in the assay with Venetoclax + Navitoclax (first compound 0.3162 µM) it was 1.16; in the assay with Venetoclax + Navitoclax (first compound 1 µM) it was 0.901; with Venetoclax + Linsitinib (first compound 0.01 µM), 0.996; in the assay with Venetoclax + Linsitinib (first compound 0.03162 µM) it was 1.15; with Venetoclax + Linsitinib (first compound 0.3162 µM), 1.4. In addition, the relative viability with Venetoclax + Linsitinib (first compound 1 µM) turned out to be 1.02.

With NCI-H1734, the relative viability in the assay with Venetoclax + Trametinib (first compound 0.01 µM) turned out to be 0.588; with Venetoclax + Trametinib (first compound 0.03162 µM), 0.739; with Venetoclax + Trametinib (first compound 0.1 µM), 0.635; in the assay with Venetoclax + Trametinib (first compound 0.3162 µM) it was 0.781; in the assay with Venetoclax + Trametinib (first compound 1 µM), 0.614; in the assay with Venetoclax + Palbociclib (first compound 0.01 µM), 0.331. In addition, the relative viability with Venetoclax + Palbociclib (first compound 0.03162 µM) is 0.383; with Venetoclax + Palbociclib (first compound 0.1 µM), 0.346; in the assay with Venetoclax + Palbociclib (first compound 0.3162 µM) it was 0.394; with Venetoclax + Palbociclib (first compound 1 µM), 0.318; with Venetoclax + Navitoclax (first compound 0.01 µM) it was 0.767; with Venetoclax + Navitoclax (first compound 0.03162 µM) it was 1. Besides, the relative viability with Venetoclax + Navitoclax (first compound 0.1 µM) amounted to 0.78; with Venetoclax + Navitoclax (first compound 0.3162 µM), 0.811; in the assay with Venetoclax + Navitoclax (first compound 1 µM), 0.787; with Venetoclax + Linsitinib (first compound 0.01 µM) it was 0.894; in the assay with Venetoclax + Linsitinib (first compound 0.03162 µM), 0.911; with Venetoclax + Linsitinib (first compound 0.1 µM) it was 0.803. In addition, the relative viability was 0.855 with Venetoclax + Linsitinib (first compound 0.3162 µM) and 0.865 in the assay with Venetoclax + Linsitinib (first compound 1 µM).

Take NCI-H2023: the relative viability with Venetoclax + Trametinib (first compound 0.01 µM) stood at 0.526; with Venetoclax + Trametinib (first compound 0.03162 µM) it was 0.552; in the assay with Venetoclax + Trametinib (first compound 0.1 µM) it was 0.558; in the assay with Venetoclax + Trametinib (first compound 0.3162 µM), 0.485; in the assay with Venetoclax + Trametinib (first compound 1 µM), 0.477; with Venetoclax + Palbociclib (first compound 0.01 µM), 0.382. Besides, the relative viability with Venetoclax + Palbociclib (first compound 0.03162 µM) was found to be 0.338; with Venetoclax + Palbociclib (first compound 0.1 µM), 0.349; with Venetoclax + Palbociclib (first compound 0.3162 µM) it was 0.329; in the assay with Venetoclax + Palbociclib (first compound 1 µM), 0.33; in the assay with Venetoclax + Navitoclax (first compound 0.01 µM), 0.984; in the assay with Venetoclax + Navitoclax (first compound 0.03162 µM) it was 0.987. Further, the relative viability with Venetoclax + Navitoclax (first compound 0.1 µM) was determined as 0.924; with Venetoclax + Navitoclax (first compound 0.3162 µM), 0.96; in the assay with Venetoclax + Navitoclax (first compound 1 µM) it was 0.86; with Venetoclax + Linsitinib (first compound 0.01 µM), 0.685; with Venetoclax + Linsitinib (first compound 0.03162 µM), 0.636; with Venetoclax + Linsitinib (first compound 0.1 µM) it was 0.657. The relative viability with Venetoclax + Linsitinib (first compound 0.3162 µM) stood at 0.682; with Venetoclax + Linsitinib (first compound 1 µM), 0.678.

In the case of NCI-H2009, the relative viability with Venetoclax + Trametinib (first compound 0.01 µM) stood at 0.346; in the assay with Venetoclax + Trametinib (first compound 0.03162 µM), 0.351; with Venetoclax + Trametinib (first compound 0.1 µM) it was 0.292; with Venetoclax + Trametinib (first compound 0.3162 µM) it was 0.266; with Venetoclax + Trametinib (first compound 1 µM) it was 0.264; in the assay with Venetoclax + Palbociclib (first compound 0.01 µM), 0.264. For the same cell line, the relative viability came out at 0.228 in the assay with Venetoclax + Palbociclib (first compound 0.03162 µM); 0.258 in the assay with Venetoclax + Palbociclib (first compound 0.1 µM); 0.216 with Venetoclax + Palbociclib (first compound 0.3162 µM); 0.203 with Venetoclax + Palbociclib (first compound 1 µM); 1.14 with Venetoclax + Navitoclax (first compound 0.01 µM); 1.14 with Venetoclax + Navitoclax (first compound 0.03162 µM). In addition, the relative viability with Venetoclax + Navitoclax (first compound 0.1 µM) came to 1.13; with Venetoclax + Navitoclax (first compound 0.3162 µM), 1.15; with Venetoclax + Navitoclax (first compound 1 µM) it was 1.05; with Venetoclax + Linsitinib (first compound 0.01 µM), 1.2; in the assay with Venetoclax + Linsitinib (first compound 0.03162 µM), 1.14; in the assay with Venetoclax + Linsitinib (first compound 0.1 µM), 1.09. For the same cell line, the values for the relative viability with Venetoclax + Linsitinib (first compound 0.3162 µM) and with Venetoclax + Linsitinib (first compound 1 µM) were 1.09 and 1.11, respectively.

In the case of HCC-78, the relative viability was 0.599 with Venetoclax + Trametinib (first compound 0.01 µM); 0.826 with Venetoclax + Trametinib (first compound 0.03162 µM); 0.597 with Venetoclax + Trametinib (first compound 0.1 µM); 0.722 in the assay with Venetoclax + Trametinib (first compound 0.3162 µM); 0.911 with Venetoclax + Trametinib (first compound 1 µM); 0.456 with Venetoclax + Palbociclib (first compound 0.01 µM). The relative viability in the assay with Venetoclax + Palbociclib (first compound 0.03162 µM) is 0.534; with Venetoclax + Palbociclib (first compound 0.1 µM), 0.437; in the assay with Venetoclax + Palbociclib (first compound 0.3162 µM), 0.433; in the assay with Venetoclax + Palbociclib (first compound 1 µM), 0.469; with Venetoclax + Navitoclax (first compound 0.01 µM) it was 0.97; in the assay with Venetoclax + Navitoclax (first compound 0.03162 µM) it was 0.895. The relative viability was 0.688 in the assay with Venetoclax + Navitoclax (first compound 0.1 µM); 0.755 in the assay with Venetoclax + Navitoclax (first compound 0.3162 µM); 0.84 with Venetoclax + Navitoclax (first compound 1 µM); 0.494 with Venetoclax + Linsitinib (first compound 0.01 µM); 0.563 with Venetoclax + Linsitinib (first compound 0.03162 µM); 0.433 in the assay with Venetoclax + Linsitinib (first compound 0.1 µM). In addition, the relative viability with Venetoclax + Linsitinib (first compound 0.3162 µM) is 0.571; in the assay with Venetoclax + Linsitinib (first compound 1 µM), 0.596.
